Results taken from patent US20190125704A1, “PAIN RELIEF COMPOSITION” (priority 2016, published 2019).
Where “and” joins values, the source holds several entries; their conditions need not be identical. Equal entries are not always repeated.

System: TRPV ion channels
Experiment: TRPV ion channel activity: 2-APB-induced intracellular calcium change in f11 nociceptive sensory cells (Fluo-4-AM)
Format: cell-based, white rats
Conditions: f11 cell lines pre-treated with the compound for 24 hours, then 2-APB
Protocol: To investigate the activity of the compound of Formula 1 isolated in Example 1, pain relief effects were evaluated. The pain relief was confirmed by identifying intracellular calcium levels and signaling pathways.
After f11 nociceptive sensory cell lines in white rats incubated with the compound of Formula 1 to 50% confluence for 24 hours were pretreated, TRPV ion channel activities were measured. The f11 cell lines were treated with 2-APB (2-aminoethoxydiphenyl borate) as a pre-activator for TRPV ion channels, and intracellular calcium changes, which are triggered in response to the 2-APB treatment, were evaluated using a Fluo-4-AM fluorescent dye on a real time basis.

SMILES: CC(C)c1ccc2c(c1)C=C[C@H]1[C@](C)(C(=O)O)CCC[C@]21C [Formula 1, abieta-6,8,11,13-tetraaen-18-oic acid]
- increase in the intracellular calcium level induced by 2-APB (Fluo-4-AM fluorescent dye, real time): strongly inhibited
- intracellular calcium level after 2-APB treatment (tabulated data of FIG. 8, individual values) (Fluo-4-AM, compared with untreated control group): 1.1293 and 1.1714 and 1.1656 and 1.434 and 1.8663 and 1.3893 and 1.1031 and 1.2503 and 1.4131 and 1.3008 and 1.2251 and 1.1536 and 1.125 and 1.1572
